US20130165489A1, “Small Molecule Modulators of HIV-1 Capsid Stability and Methods Thereof” (The Trustees of the University of Pennsylvania, priority 2010, published 2013)
Entries after “also recorded” stand apart in the source; their conditions may differ.

How the values were obtained:
[1] = system: Vaccinia; experiment: microbe, parasite or virus in culture; assay type: cell-based
[2] = biological target: HIV-1NL4-3 CA (Human immunodeficiency virus type 1 group M subtype B, UniProt P12493); experiment: Surface plasmon resonance direct binding to HIV-1 CA
Protocol: Interaction analyses were performed on a Biacore 3000 optical biosensor (Biacore, Piscataway Township, NJ) with simultaneous monitoring of two flow cells Immobilization of the CA protein to CM7 sensor chips was performed following the standard amine coupling procedure according to the manufacturer's specifications. Briefly, carboxyl groups on the sensor chip surface were activated by injection of 50 μL of a solution containing 0.2 M EDC (1-ethyl-3-[3-dimethylamino-propyl]carbodiimide hydrochloride) and 0.05 M NHS(N-hydroxysuccinimide) at a flow rate of 5 μL min^−1. Next, the 50 μL of CA protein at a concentration of 6 μM in pH 5.0, 10 mM sodium acetate buffer was passed over the chip surface at 25° C. at a flow rate of 5 μL min^−1 Then, after unreacted protein had been washed out, excess active ester groups on the sensor surface were capped by the injection of 50 μL of 1 M ethanolamine (pH 8.0) at a flow rate of 5 μL min^−1. A reference surface with the nonspecific anti-gp120 antibody 17b (Thali et al., 1993, J. Virol. 67:3978-88) immobilized was generated at the same time under the same conditions and was used as background to correct nonspecific binding and for instrument and buffer artifacts.
Stock solutions of CMPD-E and CMPD-F were prepared by dissolving the compounds in 100% dimethyl sulfoxide (DMSO) to a final concentration of 10 mM. To prepare the sample for analysis, 30 μL of the compound stock solution was added to sample preparation buffer (25 mM Tris-HCl, 150 mM NaCl, pH 7.5) to a final volume of 1 mL and mixed thoroughly. Preparation of analyte in this manner ensured that the concentration of DMSO was matched with that of running buffer with 3% DMSO. Lower concentrations of each compound were then prepared by twofold serial dilutions into running buffer (25 mM Tris-HCl, 150 mM NaCl, 3% DMSO, pH 7.5). These compound dilutions were then injected over the control and CA surfaces at a flow rate of 50 μL min^−1, for a 2-min association phase, followed by a 5-min dissociation phase. […]

[3] = biological target: HIV-1 CA (Human immunodeficiency virus type 1 group M subtype B, UniProt P12493); experiment: In vitro CA assembly assay (turbidity); assay type: biochemical; conditions: CA 30 μM; compound 147 μM; turbidity at 350 nm
Protocol: The effect of compound CMPD-E on the assembly of HIV-1 CA was measured by monitoring turbidity at 350 nm using a modification of the method of Tian et al. (Tian et al., 2009, Bioorg. Med. Chem. Lett. 19:2162-67). Briefly, 1.0 μL of concentrated CMPD-E in 100% DMSO was added to a 74-μL aqueous solution (2 mL of 5 M NaCl mixed with 1 mL of 200 mM NaH2PO4, pH 8.0). To initiate the assembly reaction, 25 μL of purified CA protein (120 μM) was added. An identical reaction mixture was prepared, omitting the compound (i.e., DMSO only). Samples were allowed to equilibrate for 2 min prior to reading. Readings were taken at 350 nm every 10 s for 30 min. CA was used at a final concentration of 30 μM, and CMPD-E at a final concentration of 147 μM.

[4] = system: HIV-1 BCF02 (group O clinical isolate); experiment: Anti-HIV efficacy in human PBMCs, isolate BCF02; assay type: cell-based
Protocol: HIV human peripheral blood mononuclear cell (PBMC) assays were performed as described previously (Lanier et al., 2010, Antimicrob. Agents Chemother. 54:2901-09; Ptak et al., 2008, Antimicrob. Agents Chemother. 52:1302-17). Briefly, fresh PBMCs, seronegative for HIV and hepatitis B virus (HBV), were isolated from blood samples of the screened donors (Biological Specialty Corporation, Colmar, Pa.) by using lymphocyte separation medium (LSM; density, 1.078±0.002 g/ml; Cellgro; Mediatech, Inc.) by following the manufacturer's instructions. Cells were stimulated by incubation in 4 μg/mL phytohemagglutinin (PHA; Sigma) for 48 to 72 h. Mitogenic stimulation was maintained by the addition of 20 U/mL recombinant human interleukin-2 (rhIL-2; R&D Systems, Inc.) to the culture medium. PHA-stimulated PBMCs from at least two donors were pooled, diluted in fresh medium, and added to 96-well plates at 5×10^4 cells/well. Cells were infected (final multiplicity of infection [MOI] of ≅0.1) in the presence of 9 different concentrations of test compounds (triplicate wells/concentration) and incubated for 7 days. […] Following removal of supernatant samples, compound cytotoxicity was measured by the addition of 3-(4,5-dimethylthiazol-2-yl)-5-(3-carboxymethoxyphenyl)-2-(4-sulfophenyl)-2H-tetrazolium (MTS; CellTiter 96 reagent; Promega) by following the manufacturer's instructions. […]

O=C(O)c1ccc(-c2nc(-c3ccccc3)c(-c3ccccc3)[nH]2)cc1 [CMPD-E, 4-(4,5-diphenyl-1H-imidazol-2-yl)benzoic acid]
IC50 ([1]; Orthopoxvirus vaccinia): > 100 µM | effect on Vaccinia replication ([1]; up to 100 μM): no inhibitory effects | Kd [2]: 66.3 ± 4.8 µM | interaction with sensor-chip immobilized HIV-1 CA ([2]; SPR): directly interacted | effect on assembly of HIV-1 CA in vitro [3]: prevents the assembly of the capsid; also recorded: prevented assembly of CA in vitro; also recorded: preventing the assembly of the capsid | IC50 ([4]; Human immunodeficiency virus 1, PBMC): 71.3 µM | Antiviral index (TC50/IC50) ([4]; PBMC): >1.4
